Experimental data taken from BindingDB's records for patent US11396516 (The General Hospital Corporation, 2022).

Target: T1, Cytochrome P450 1A2 (Homo sapiens, UniProt P05177)
T1 sequence (P05177 whole entry): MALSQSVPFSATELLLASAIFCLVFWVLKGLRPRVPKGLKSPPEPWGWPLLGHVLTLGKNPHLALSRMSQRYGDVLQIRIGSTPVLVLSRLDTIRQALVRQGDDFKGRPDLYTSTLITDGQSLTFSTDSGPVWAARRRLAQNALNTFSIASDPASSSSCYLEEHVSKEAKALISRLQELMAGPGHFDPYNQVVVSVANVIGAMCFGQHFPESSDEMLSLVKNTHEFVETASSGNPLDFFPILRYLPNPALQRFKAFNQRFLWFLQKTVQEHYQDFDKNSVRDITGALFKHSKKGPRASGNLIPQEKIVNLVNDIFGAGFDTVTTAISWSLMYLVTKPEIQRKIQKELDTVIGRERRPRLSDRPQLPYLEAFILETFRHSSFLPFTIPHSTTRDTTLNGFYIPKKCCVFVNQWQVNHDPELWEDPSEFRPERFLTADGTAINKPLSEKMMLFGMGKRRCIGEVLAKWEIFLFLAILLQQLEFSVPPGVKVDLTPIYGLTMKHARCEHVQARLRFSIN
Assay: Inhibition of CYP Enzyme Activity In Vitro
Protocol: The ability of the tested compounds to inhibit a panel of CYP enzymes in vitro was assessed using a series of human liver microsome assays. Half-maximal inhibitory concentration (IC50) was calculated for compounds demonstrating mean inhibition greater than 50% compared to a reference inhibitor.

Q: Which IC50 does the source give for `COc1c2ccoc2cc2oc(C)cc(=O)c12` [US11396516, Example visnagin] here?
A: Its IC50 is 240 nM.
